Values quoted from earlier work in US20260232589A1, “NANOPREPARATIONS LOADED WITH TRABECTEDIN AND PACLITAXEL” (SHANGHAI JIAO TONG UNIVERSITY, priority 2023, published 2026).

Tested on: Ly6Chi monocytes
Conditions: literature reports, after trabectedin administration

COc1cc2c(cc1O)CCN[C@]21CS[C@@H]2c3c(OC(C)=O)c(C)c4c(c3[C@H](COC1=O)N1[C@@H]2[C@H]2c3c(cc(C)c(OC)c3O)C[C@@H]([C@@H]1O)N2C)OCO4 [trabectedin]
number of Ly6Chi monocytes in the peripheral blood of mice: decreases
